Test results taken from patent publication US11857634B2, “Cationic amphiphilic polymers for codelivery of hydrophobic agents and nucleic acids” (University of Pittsburgh—Of the Commonwealth System of …, priority 2018, dated 2024).
≈ marks a conversion by molar mass, not a printed value. Entries after “also recorded” stand apart in the source; their conditions may differ.

Legend:
[1] = In vitro DOX release from POEG-st-Pmor micelles by dialysis; type: physicochemical; conditions: first 4 hours, PBS, 37 °C
Method: In vitro drug release study for POEG-st-Pmor micelles. The in vitro DOX release kinetics for the POEG-st-Pmor micelles was determined by a dialysis method. Briefly, 0.5 ml of DOX-loaded micelles and micelles co-loaded with DOX and IL-36γ plasmid at a DOX concentration of 0.5 mg/mL were placed into a dialysis bag (MW cutoff 3,500), respectively. The dialysis bag was incubated in 100 mL PBS with gentle shaking at 37° C. Two ml of PBS solution outside of the dialysis bag was collected at different time points and equal amount of fresh PBS was added back. The concentrations of released DOX were determined by HPLC.

[2] = Cellular uptake of DOX by confocal laser scanning microscopy (POEG-st-Pmor); type: cell-based; conditions: 2 h of incubation
From the text: The cellular uptake of DOX-loaded POEG-st-Pmor micelles was investigated by confocal laser scanning microscopy with free DOX as a control. […] This may, for example, be a result of different cellular uptake routes of free DOX and DOX micelles.

[3] = tested on: 4T1.2 breast cancer lung metastasis; experiment: Mouse model of breast cancer lung metastasis (4T1.2), POEG-st-Pmor formulations; type: in vivo, mice; conditions: i.v. every three days for three times; DOX 5 mg/kg, plasmid 50 μg per mouse
Method: Mouse model of breast cancer lung metastasis. Female Balb/c mice were injected with 2×10^5 4 T1.2 cells through the tail vein. Five days after tumor cell injection, mice were randomly divided into 6 groups. POEG-st-Pmor was chosen as a representative carrier system for codelivery of IL-36γ plasmid and DOX. […] The PBS treatment group was used as control. DOX dosage was 5 mg/kg and plasmid dosage was 50 μg per mouse. Lung tissues were harvested and weighted 11 days after the first injection. Pulmonary metastases were enumerated by intra-tracheal injection of India ink solution. India ink-injected lungs were washed in Feket's solution (300 ml 70% EtOH, 30 ml 37% formaldehyde and 5 ml glacial acetic acid) and white tumor nodules against a dark blue lung background were counted.
Histopathological analysis. The lung tissues were harvested and fixed in 10% formalin after the above treatments. The fixed samples were then embedded in paraffin and the tissue sections were stained with hematoxylin/eosin and analyzed for the presence of metastases under microscope. The total number of metastases per lung section was counted in different treatment groups.

[4] = tested on: immune cells in lung tissues; experiment: Tumor-infiltrating lymphocytes and MDSCs in tumor-bearing lungs, flow cytometry (POEG-st-Pmor); type: in vivo, mice; conditions: compared to untreated control group
Method: Analysis of tumor-infiltrating lymphocytes and myeloid-derived suppressor cells. Lung tissues were collected in serum free RPMI medium and cut mechanically with scissors. Liberase TL (0.3 mg/ml) and DNase I (0.3 mg/ml) were used to digest the lung tissues and tumor nodules. Tissues were further grinded and filtered through a […] cell strainer. TILs and MDSC cells were further purified and stained with fluorescence-labeled antibody for flow cytometry analysis using a FACS flow cytometer.

[5] = DOX release from POEG-PCre micelles by dialysis against DPBS; type: physicochemical; conditions: first 4 h, DPBS pH 7.4, 37 °C
Method: The release kinetics of DOX from DOX-loaded POEG-PCre micelles was investigated by dialysis against DPBS of pH 7.4 at 37° C. […] To the contrary, only 16% of DOX was released from DOX/POEG-PCre micelles in first 4 h, and less than 40% of DOX was released for an extended period of 96 h.

4T1.2 cells [6] = experiment: Intracellular co-delivery of DOX and MFP488-labeled tRNA-mir-34a, confocal microscopy; type: cell-based, murine; conditions: 4 h
Method: To monitor intracellular co-delivery of DOX and tRNA-mir-34a, tRNA-mir-34a was labeled with MFP488 fluorescent dye to visualize the cell uptake of tRNA-mir-34a along with red fluorescence of DOX. 4T1.2 cells were incubated for 4 h with micelle complexes carrying DOX and/or MFP488-labeled tRNA-mir-34a and then observed under a confocal microscope. Naked tRNA-mir-34a without any transfection agent was used as a negative control.

Dicer = experiment: Induction of Dicer after treatment; type: cell-based; conditions: dose dependent
4T1.2 cells [7] = experiment: In vitro cytotoxicity, MTT assay (POEG-PCre formulations); type: cell-based, murine; conditions: 48 h; DOX 7.8-1,000 ng/mL, tRNA-mir 0.78-100 nM, carrier 78-10000 ng/mL
Method: The in vitro cytotoxicity of DOX+tRNA-mir-34a co-loaded POEG-PCre micelles was evaluated by MTT assay. Tumor cells were treated with various formulations for 48 h, with the doses of DOX, tRNA-mir, and POEG-PCre carrier ranging from 7.8 to 1,000 ng/mL, 0.78 nM to 100 nM, and 78 ng/mL to 10000 ng/mL, respectively. […] A similar trend was also observed in MDA-MB-231 breast cancer cells (FIG. 14B).

breast cancer cells = experiment: Apoptosis assay, Annexin V/propidium iodide flow cytometry; type: cell-based
Method: The enhanced cytotoxicity of DOX+tRNA-mir-34a-co-loaded nanocomplexes was assessed via apoptosis assay. Cell apoptosis was evaluated quantitatively by Annexin V/propidium iodide flow cytometry.

4T1.2 cancer cells = experiment: Cell migration, wound closure assay; type: cell-based, murine; conditions: 4T1.2, 24 h
From the text: Besides cancer cell viability, cell migration represents a critical process for tumor progression and metastasis. MiR-34a has been reported to be functional as an anti-metastatic miRNA by directly targeting CD44 and NOTCH-1. Therefore, the effect of tRNA-mir-34a and DOX co-loaded nanocomplexes on the cell migration was investigated using the wound closure assay.

4T1.2 tumor metastasis = experiment: Breast cancer lung metastasis model (4T1.2), POEG-PCre formulations; type: in vivo, mice; conditions: i.v. every 3 d for 3 times, analysed 5 days after last treatment
Method: The in vivo anti-tumor efficacy of DOX+tRNA-mir-34a co-loaded nanocomplexes was evaluated in a breast cancer lung metastasis model, generated by tail-vein injection of 4T1.2 tumor cells into female Balb/c mice. Five days after tumor inoculation, various treatments were applied to each group of mice (n=5) via i.v. administration every 3 d for 3 times. The tumor burdens in the lungs were analyzed 5 days after the last treatment. […] No significant decrease of body weight was observed, indicating the safety of the formulation (FIG. 15C).
To further confirm the anticancer efficacy, H&E staining and immunohistochemical analysis of Ki67 were performed in tumor-bearing lungs.

[8] = Toxicity: body weight, blood chemistry, H&E staining of major organs; parameters: species or system mice; conditions: mouse, in vivo
Method: In addition, blood chemistry tests were performed to evaluate the effect of our formulations on liver and kidney functions. […] Moreover, the H & E staining of major organs was carried out to further evaluate the potential toxicity of different treatments.

[9] = tested on: immune cells in tumor-bearing lungs; experiment: Immune cells in tumor-bearing lungs (POEG-PCre formulations); parameters: species or system mice; conditions: mouse, in vivo
From the text: Treatment with tRNA-mir-34a alone or tRNA-mir-34a/DOX combination reduced the numbers of PD1+ CD8 cells (FIG. 16D) and T-regulatory cells (Tregs) (FIG. 16E).

[10] = Intracellular uptake and distribution of DOX at pH 6.8 and 7.4, CLSM; type: cell-based; conditions: 4 h incubation
From the text: Intracellular uptake and distribution of DOX-loaded micelles and IL-12/DOX co-loaded PMet-P(cdmPEG2K) micelleplexes was investigated by CLSM.

[11] = tested on: 4T1.2 breast cancer cells; experiment: In vitro cytotoxicity, MTT assay (POEG-st-Pmor formulations); conditions: 4T1.2 cells, 72 h
Method: Briefly, 4T1.2 cells (2,000 cells/well) were seeded in 96-well plates for overnight and were treated with various concentrations of DOX formulations for 72 h. MTT solution was added to each well and MTT formazan was solubilized by DMSO after 2 h of incubation. The absorbance in each well was measured by a microplate reader at a wavelength of 570 nm. Cell viability was calculated as [(ODtreat−ODblank)/(ODcontrol−ODblank)×100%]. The cytotoxicity of POEG-st-Pmor micelles alone was similarly tested in 4T1.2 cells as described above.

In the case of `COc1cccc2c1C(=O)c1c(O)c3c(c(O)c1C2=O)C[C@@](O)(C(=O)CO)C[C@@H]3O[C@H]1C[C@H](N)[C@H](O)[C@H](C)O1` [free DOX, Doxorubicin], the DOX released [1] is reported as 80%, the “Intracellular location of DOX signals” value [2] is reported as “largely found in the nucleus” and the “Antitumor activity / inhibition of lung metastasis” value [3] is reported as “significant inhibition of lung metastasis; also recorded: significant activity”. The “CD4+ T cells in lung tissues” value [4] was “significant increase”, the “CD8+ T cells in lung tissues” value [4] was “significant increase” and the DOX released [5] was “more than 80%”. For the same compound, the “Intracellular location of fluorescence signals” value (4T1.2 cells [6]) was “largely found in the nucleus”, the Dicer expression (Dicer) was “induction of Dicer” and the “Cell growth inhibition / cytotoxicity” value (4T1.2 cells [7]) was “inhibited the proliferation of tumor cells in a dose dependent manner”. The Cell apoptosis (breast cancer cells) was ~31%, the “Inhibition of cell migration” value (4T1.2 cancer cells) was ~40% and the “Inhibition of lung metastasis / tumor nodules in lungs” value (4T1.2 tumor metastasis) was “Dramatic reduction in the number of tumor nodules”. The “Pathological changes, H&E staining of major organs” value [8] was “signs of myocytolysis and myofibrillolysis with fibrils dearrangement; also recorded: hepatocellular vacuolation”, the “Numbers of CD4 cells in tumor-bearing lungs” value [9] was “significant increase” and the “Numbers of CD8 cells in tumor-bearing lungs” value [9] was “significant increase”. The “Numbers of MDSC” value [9] was “trend of decreases”, the “Numbers of functional CD8 (IFN-γ+ CD8) cells” value [9] was “trend of increase” and the “Cellular uptake compared with DOX-loaded micelles” value [10] was “slightly stronger fluorescence signal”. The “Intracellular DOX fluorescence at pH 6.8 versus pH 7.4” value [10] was “not significantly affected by pH”, the Cytotoxicity ([11]; DOX 4 to 1000 ng/mL) was “dose-dependent cell killing profile” and the IC50 ([11]; MTT, as DOX) was 0.13 µg/mL (≈ 0.239 µM).
